Calls of active or inactive are those of the source.
Molecular target: T1, Ubiquitin-conjugating enzyme E2 N (Homo sapiens, UniProt P61088);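 also: Dose-response confirmation in a TR-FRET assay detecting UBC13-driven polyubiquitin chain formation, inhibition measured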
T1 sequence (P61088 whole entry): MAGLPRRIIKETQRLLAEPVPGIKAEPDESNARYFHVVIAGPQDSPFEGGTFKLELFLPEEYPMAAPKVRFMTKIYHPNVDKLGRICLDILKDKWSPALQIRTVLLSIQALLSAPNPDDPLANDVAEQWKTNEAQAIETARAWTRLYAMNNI
Assay: not given
Format: functional

IC50 | SMILES
> 20 µM (inactive) | COc1cccc(-c2nn(C)c3sc(C(=O)NCCCN(C)Cc4ccccc4)cc23)c1
> 20 µM (inactive) | NC(=S)N=Nc1c(O)n(CCCl)c2ccc(Cl)cc12
> 20 µM (inactive) | O=C(COC(=O)CCCCCNC1=NS(=O)(=O)c2ccccc21)Nc1ccc(Cl)c(Cl)c1
> 20 µM (inactive) | CN(C)S(=O)(=O)c1cccc(COc2ncnc3c(Cl)cc(Cl)cc23)c1
> 20 µM (inactive) | COc1ccccc1NC(=O)CSc1nc2ccccc2n1C(C)=O
> 20 µM (inactive) | CCOC(=O)C(=NC1CCS(=O)(=O)C1)NNc1cc(Cl)ccc1Cl (stereo unspecified)
> 20 µM (inactive) | COc1ccccc1NS(=O)(=O)c1cccc(C(=O)NNC(=O)c2ccc(Cl)nc2)c1
> 20 µM (inactive) | CCOc1ccccc1NC(=O)COc1cccnc1[N+](=O)[O-]

SMILES | IC50
Cc1ccc(C(=O)N[C@@H](C)CN2C3=NC[C@H](Cc4ccccc4)N3C[C@H]2Cc2ccc(O)cc2)cc1Br | > 20 µM (inactive)

Tested on: not listed separately
Assay: intracellular Trypanosoma cruzi inhibitors in host cells – cell-based, plate reader, cherry-pick samples, set 3, dose response (AID 651818);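 also: compounds incubated with infected cells for about four days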
Format: functional

SMILES | AC50
COc1ccc(S(=O)(=O)Nc2ccc3c(c2)C(=O)N([C@H](C)CO)C[C@H](C)[C@@H](CN(C)Cc2ccc(-c4ccccc4)cc2)O3)cc1 | 3.32 µM (active)
C[C@@H]1CCCCO[C@@H](CN(C)CC2CCCCC2)[C@@H](C)CN([C@H](C)CO)C(=O)c2cc(NC(=O)Nc3ccc4c(c3)OCO4)ccc2O1 | 0.75 µM (active)
C[C@H]1CN([C@@H](C)CO)C(=O)c2cccc(NC(=O)c3ccc(-c4nccs4)cc3)c2O[C@@H]1CN(C)Cc1ccc(-c2ccccc2)cc1 | 2.93 µM (active)
C[C@@H]1CN([C@@H](C)CO)C(=O)c2cccc(NS(=O)(=O)c3ccc(F)cc3)c2O[C@@H]1CN(C)Cc1ccc(Oc2ccccc2)cc1 | 7.95 µM (active)
C[C@@H]1CCCCO[C@H](CN(C)C(=O)NC2CCCCC2)[C@@H](C)CN([C@H](C)CO)C(=O)c2cc(NC(=O)Nc3ccc(C(F)(F)F)cc3)ccc2O1 | 4.85 µM (active)
C[C@@H]1CN([C@H](C)CO)C(=O)Cc2cc(NC(=O)Nc3ccc(C(F)(F)F)cc3)ccc2O[C@@H]1CN(C)Cc1ccc(-c2ccccc2)cc1 | 3.22 µM (active)
C[C@@H]1CN([C@H](C)CO)C(=O)Cc2cc(NC(=O)Nc3ccc(F)cc3)ccc2O[C@@H]1CN(C)Cc1ccc(Oc2ccccc2)cc1 | 2.71 µM (active)
COc1ccc(S(=O)(=O)N(C)C[C@@H]2Oc3c(NC(=O)c4nc5ccccc5s4)cccc3C(=O)N([C@H](C)CO)C[C@@H]2C)cc1 | 1.17 µM (active)
C[C@@H]1CN([C@H](C)CO)C(=O)Cc2cc(NS(=O)(=O)c3ccccc3)ccc2O[C@@H]1CN(C)Cc1ccc(C(=O)Nc2ccccc2N)cc1 | 3.75 µM (active)
C[C@H]1CN([C@@H](C)CO)C(=O)c2cccc(NC(=O)C3CCCCC3)c2O[C@H]1CN(C)Cc1ccc(C(=O)Nc2ccccc2N)cc1 | 3.38 µM (active)
C[C@@H]1CCCCO[C@@H](CN(C)Cc2ccc(C(F)(F)F)cc2)[C@@H](C)CN([C@H](C)CO)C(=O)c2cc(NC(=O)C3CCCCC3)ccc2O1 | 6.38 µM (active)

Tested on: not listed separately
Assay: Shn3 3'UTR reporter inhibitors, dose response, cell-based, Clone20 osteoblasts, firefly luciferase, cherry-picked (AID 624132);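 also: firefly luciferase luminescence from reporter carrying the Shn3 3'UTR in osteoblasts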
Format: functional

SMILES | AC50
CCCCNc1cccc2c1S(=O)(=O)N(CCCC)CC(COCc1ccccc1)O2 (stereo unspecified) | 8.93 µM (active)

Tested on: not listed separately
Assay: control 3'UTR Renilla luciferase suppression, dose response, counter-screen for Shn3 inhibitor project, cell-based, Clone20-Shn3RL, cherry-picked (AID 624133)
Format: functional

SMILES | AC50
CCCCNc1cccc2c1S(=O)(=O)N(CCCC)CC(COCc1ccccc1)O2 (stereo unspecified) | 31.7 µM (active)

Molecular target: T2, High affinity choline transporter 1 (Homo sapiens, UniProt Q9GZV3)
T2 sequence (Q9GZV3 whole entry): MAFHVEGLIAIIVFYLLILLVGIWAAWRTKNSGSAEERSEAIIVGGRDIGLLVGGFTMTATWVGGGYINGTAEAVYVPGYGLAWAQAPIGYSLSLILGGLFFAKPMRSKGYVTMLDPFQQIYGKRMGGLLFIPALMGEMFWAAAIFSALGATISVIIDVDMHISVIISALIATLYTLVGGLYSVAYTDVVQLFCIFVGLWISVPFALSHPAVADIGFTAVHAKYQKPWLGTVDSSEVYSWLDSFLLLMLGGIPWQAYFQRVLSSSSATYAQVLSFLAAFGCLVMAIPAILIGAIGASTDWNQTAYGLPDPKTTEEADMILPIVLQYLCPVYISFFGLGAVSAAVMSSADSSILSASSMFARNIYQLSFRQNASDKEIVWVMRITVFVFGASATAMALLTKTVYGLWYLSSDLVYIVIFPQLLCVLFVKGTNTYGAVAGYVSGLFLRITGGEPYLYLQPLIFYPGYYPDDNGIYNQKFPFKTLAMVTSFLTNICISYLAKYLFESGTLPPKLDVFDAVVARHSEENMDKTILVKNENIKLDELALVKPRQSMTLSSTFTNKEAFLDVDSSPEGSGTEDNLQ
Assay: CHT inhibitors, dose response, cell-based, 5-point CRC, membrane potential dye (AID 504840)
Format: functional

IC50 | SMILES
12.3 µM (active) | C/C=C(\C)CN1CCC(Oc2cccc(C(=O)NCc3ccccn3)c2)CC1
15.1 µM (active) | CCOc1ccc(/C=C2\SC(=S)N(NC(=O)c3ccncc3)C2=O)cc1OC
13.8 µM (active) | Cc1ccc2c(c1)N(CCCC(=O)NCC1COc3ccccc3O1)C(=O)CO2 (stereo unspecified)
4.79 µM (active) | CCOC(=O)Cc1csc(NS(=O)(=O)c2ccc3c4c(cccc24)C(=O)N3CC)n1
7.09 µM (active) | O=C(Nc1ccccc1C(=O)NCCCN1CCOCC1)c1ccc(F)cc1
13.8 µM (active) | O=C(Nc1ccc(S(=O)(=O)N2CCOCC2)cc1)c1ccc(Cl)cc1Cl

Molecular target: T3, Heat shock factor protein 1 (Mus musculus, UniProt P38532)
T3 sequence (P38532 whole entry): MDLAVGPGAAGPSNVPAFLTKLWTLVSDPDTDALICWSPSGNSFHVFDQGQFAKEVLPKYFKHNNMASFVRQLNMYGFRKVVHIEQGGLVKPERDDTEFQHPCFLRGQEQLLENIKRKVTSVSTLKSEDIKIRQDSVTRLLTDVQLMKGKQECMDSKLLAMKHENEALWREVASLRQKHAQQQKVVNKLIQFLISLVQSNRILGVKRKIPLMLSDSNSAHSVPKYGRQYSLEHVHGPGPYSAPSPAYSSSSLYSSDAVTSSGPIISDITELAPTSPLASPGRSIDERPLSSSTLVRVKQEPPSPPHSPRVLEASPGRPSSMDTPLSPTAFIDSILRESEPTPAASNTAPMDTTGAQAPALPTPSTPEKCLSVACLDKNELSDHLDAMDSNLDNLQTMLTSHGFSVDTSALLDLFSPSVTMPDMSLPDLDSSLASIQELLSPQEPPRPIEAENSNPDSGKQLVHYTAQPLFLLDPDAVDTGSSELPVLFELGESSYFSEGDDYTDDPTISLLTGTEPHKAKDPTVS
Assay: inhibition of MG132-induced HSE-luciferase signal, confirmation, cell-based, NIH3T3, luminescence, dose retest (AID 2382);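 also: NIH3T3 fibroblasts with HSF1-driven luciferase reporter stressed by proteasome inhibitor MG132; luminescence from HSF1-driven luciferase expression after 8 hours of MG132 stress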
Format: functional

EC50 | SMILES
> 195 µM (not active) | O=C(Nc1ccc(S(=O)(=O)N2CCOCC2)cc1)c1ccc(Cl)cc1Cl

Molecular target: T4, Protein skinhead-1 (Caenorhabditis elegans, UniProt P34707)
T4 sequence (P34707 whole entry): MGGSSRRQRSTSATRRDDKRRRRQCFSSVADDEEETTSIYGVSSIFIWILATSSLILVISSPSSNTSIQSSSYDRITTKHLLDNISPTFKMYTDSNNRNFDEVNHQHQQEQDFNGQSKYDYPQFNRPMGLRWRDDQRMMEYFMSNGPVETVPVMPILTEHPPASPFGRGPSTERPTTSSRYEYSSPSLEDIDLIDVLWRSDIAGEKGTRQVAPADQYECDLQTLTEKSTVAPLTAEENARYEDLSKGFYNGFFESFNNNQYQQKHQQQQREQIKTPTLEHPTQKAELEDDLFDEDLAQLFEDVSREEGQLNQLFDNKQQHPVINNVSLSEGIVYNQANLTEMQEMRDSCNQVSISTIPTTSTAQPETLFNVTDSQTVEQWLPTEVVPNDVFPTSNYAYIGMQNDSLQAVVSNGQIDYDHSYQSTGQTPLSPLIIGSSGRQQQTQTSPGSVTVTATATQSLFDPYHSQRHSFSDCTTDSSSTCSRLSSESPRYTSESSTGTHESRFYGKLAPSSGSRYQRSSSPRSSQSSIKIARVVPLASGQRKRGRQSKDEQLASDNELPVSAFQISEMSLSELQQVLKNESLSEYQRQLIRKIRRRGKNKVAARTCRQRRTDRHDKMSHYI
Assay: not given
Format: functional

IC50 | SMILES
> 100 µM (inactive) | N=c1oc2ccccc2cc1-c1nc(-c2ccccc2)cs1
> 100 µM (inactive) | O=C(CCN1CCN(S(=O)(=O)c2ccc(Cl)cc2)CC1)Nc1ccc(F)cc1
22.6 µM (active) | CCOc1ccc(-c2nc(-c3cccnc3)no2)cc1
> 100 µM (inactive) | CCc1c(C)nc2cc(-c3ccccc3)nn2c1O
6.36 µM (active) | Clc1ccc(-c2nc(-c3ccncc3)no2)c(Cl)c1
> 100 µM (inactive) | O=C(O)c1ccc2ccc3ccccc3c2c1

SMILES | IC50
CCN(CC)c1ccc(C2NC(=O)c3ccccc3N2)cc1 (stereo unspecified) | > 100 µM (inactive)

Reference: ChEMBL document CHEMBL1201862, “PubChem BioAssay data set” (2004)
